{"source": "patent US20050112573A1", "about": "“Method of detecting toxic substance” (priority 2001, published 2005)", "test_system": "yeast genes (level of expressed mRNA)", "assay": "DNA chip analysis of expressed mRNA of yeast genes after 2 h culture with a toxic chemical substance", "format": "cell-based, Saccharomyces cerevisiae S288C", "settings": "for The level of expressed mRNA in the presence of chemical substance/: ratio to no chemical; for The level of expressed mRNA in the presence of chemical substance/ (ratio to absence): transport facilitation protein gene; for The level of expressed mRNA in the presence of chemical substance/ (ratio to absence of chemical substance): stress protein genes, DNA chip; for The level of expressed mRNA in the presence of chemical substance/ in its absence, gene YPR184W: yeast gene YPR184W", "outline": "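S. cerevisiae S288C in YPD at 25 °C was exposed at log phase for 2 h to a growth-inhibiting, non-lethal concentration of the chemical. Poly(A) mRNA was reverse-transcribed with Cy3- or Cy5-dUTP and hybridized to a whole-genome yeast DNA chip (65 °C, >12 h). Values are fluorescence ratios versus untreated cells.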"}
{"substance": "sodium dodecylbenzosulfonate [(17)]", "values": [{"measurement": "The level of expressed mRNA in the presence of chemical substance/The level of expressed mRNA in the absence of chemical substance", "setting": "yeast gene YOR198C", "result": 1.1}, {"measurement": "The level of expressed mRNA in the presence of chemical substance/", "setting": "yeast gene YOR220W", "result": 3.5}, {"measurement": "The level of expressed mRNA in the presence of chemical substance/", "setting": "yeast gene YOR225W", "result": 0.9}, {"measurement": "The level of expressed mRNA in the presence of chemical substance/in the absence of chemical substance", "setting": "yeast gene YOR226C", "result": 1.0}, {"measurement": "The level of expressed mRNA in the presence of chemical substance/", "setting": "yeast gene YOR228C", "result": 1.0}, {"measurement": "The level of expressed mRNA in the presence of chemical substance/ (in its absence), gene YOR251C", "setting": "yeast gene YOR251C, ratio of DNA chip fluorescence intensity to that without chemical substance", "result": 0.9}, {"measurement": "The level of expressed mRNA in the presence of chemical substance/", "setting": "yeast gene YOR255W", "result": 1.0}, {"measurement": "The level of expressed mRNA in the presence of chemical substance/The level of expressed mRNA in the absence of chemical substance", "setting": "yeast gene YOR259C", "result": 0.9}, {"measurement": "The level of expressed mRNA in the presence of chemical substance/The level of expressed mRNA in the absence of chemical substance", "setting": "yeast gene YOR261C", "result": 1.0}, {"measurement": "The level of expressed mRNA in the presence of chemical substance/ (ratio to absence)", "setting": "yeast gene YOR270C", "result": 0.9}, {"measurement": "The level of expressed mRNA in the presence of chemical substance/ (ratio to absence)", "setting": "yeast gene YOR273C", "result": 3.2}, {"measurement": "The level of expressed mRNA in the presence of chemical substance/The level of expressed mRNA in the absence of chemical substance", "setting": "yeast gene YOR288C", "result": 1.5}, {"measurement": "The level of expressed mRNA in the presence of chemical substance/in the absence of chemical substance", "setting": "yeast gene YOR303W", "result": 1.2}, {"measurement": "The level of expressed mRNA in the presence of chemical substance/ (ratio to absence), gene YOR316C", "setting": "yeast gene YOR316C, mitochondria-located protein genes, 2 h culture with chemical", "result": 0.8}, {"measurement": "The level of expressed mRNA in the presence of chemical substance/ (ratio to absence)", "setting": "yeast gene YOR332W", "result": 1.3}, {"measurement": "The level of expressed mRNA in the presence of chemical substance/ (in its absence), gene YOR348C", "setting": "yeast gene YOR348C, ratio of DNA chip fluorescence intensity to that without chemical substance", "result": 0.9}, {"measurement": "The level of expressed mRNA in the presence of chemical substance/The level of expressed mRNA in the absence of chemical substance", "setting": "yeast gene YOR355W", "result": 0.8}, {"measurement": "The level of expressed mRNA in the presence of chemical substance/ (in its absence), gene YOR363C", "setting": "yeast gene YOR363C, ratio of DNA chip fluorescence intensity to that without chemical substance", "result": 1.3}, {"measurement": "The level of expressed mRNA in the presence of chemical substance/The level of expressed mRNA in the absence of chemical substance", "setting": "yeast gene YOR383C", "result": 1.4}, {"measurement": "The level of expressed mRNA in the presence of chemical substance/ (ratio to absence), gene YPL040C", "setting": "yeast gene YPL040C, mitochondria-located protein genes, 2 h culture with chemical", "result": 0.8}, {"measurement": "The level of expressed mRNA in the presence of chemical substance/ (ratio to absence of chemical substance)", "setting": "yeast gene YPL059W", "result": 1.8}, {"measurement": "The level of expressed mRNA in the presence of chemical substance/in the absence of chemical substance", "setting": "yeast gene YPL088W", "result": 9.1}, {"measurement": "The level of expressed mRNA in the presence of chemical substance/The level of expressed mRNA in the absence of chemical substance", "setting": "yeast gene YPL089C", "result": 1.5}, {"measurement": "The level of expressed mRNA in the presence of chemical substance/The level of expressed mRNA in the absence of chemical substance", "setting": "yeast gene YPL109C", "result": 1.2}, {"measurement": "The level of expressed mRNA in the presence of chemical substance/ (ratio to absence), gene YPL134C", "setting": "yeast gene YPL134C, mitochondria-located protein genes, 2 h culture with chemical", "result": 1.3}, {"measurement": "The level of expressed mRNA in the presence of chemical substance/ (ratio to absence of chemical substance)", "setting": "yeast gene YPL140C", "result": 0.9}, {"measurement": "The level of expressed mRNA in the presence of chemical substance/ (ratio to absence)", "setting": "yeast gene YPL147W", "result": 1.5}, {"measurement": "The level of expressed mRNA in the presence of chemical substance/ (in its absence), gene YPL148C", "setting": "yeast gene YPL148C, ratio of DNA chip fluorescence intensity to that without chemical substance", "result": 1.0}, {"measurement": "The level of expressed mRNA in the presence of chemical substance/The level of expressed mRNA in the absence of chemical substance", "setting": "yeast gene YPL149W", "result": 2.2}, {"measurement": "The level of expressed mRNA in the presence of chemical substance/The level of expressed mRNA in the absence of chemical substance", "setting": "yeast gene YPL154C", "result": 1.6}, {"measurement": "The level of expressed mRNA in the presence of chemical substance/", "setting": "yeast gene YPL166W", "result": 1.1}, {"measurement": "The level of expressed mRNA in the presence of chemical substance/ (ratio to absence of chemical substance)", "setting": "yeast gene YPL194W", "result": 1.0}, {"measurement": "The level of expressed mRNA in the presence of chemical substance/", "setting": "yeast gene YPL202C", "result": 1.1}, {"measurement": "The level of expressed mRNA in the presence of chemical substance/ (ratio to absence)", "setting": "yeast gene YPL224C", "result": 1.3}, {"measurement": "The level of expressed mRNA in the presence of chemical substance/ (ratio to absence)", "setting": "yeast gene YPL265W", "result": 0.5}, {"measurement": "The level of expressed mRNA in the presence of chemical substance/ (ratio to absence)", "setting": "yeast gene YPL271W", "result": 1.2}, {"measurement": "The level of expressed mRNA in the presence of chemical substance/ (ratio to absence)", "setting": "yeast gene YPL274W", "result": 0.7}, {"measurement": "The level of expressed mRNA in the presence of chemical substance/ (ratio to absence of chemical substance)", "setting": "yeast gene YPR005C", "result": 1.0}, {"measurement": "The level of expressed mRNA in the presence of chemical substance/", "setting": "yeast gene YPR077C", "result": 1.4}, {"measurement": "The level of expressed mRNA in the presence of chemical substance/The level of expressed mRNA in the absence of chemical substance", "setting": "yeast gene YPR103W", "result": 1.2}, {"measurement": "The level of expressed mRNA in the presence of chemical substance/The level of expressed mRNA in the absence of chemical substance", "setting": "yeast gene YPR108W", "result": 1.0}, {"measurement": "The level of expressed mRNA in the presence of chemical substance/ (ratio to absence)", "setting": "yeast gene YPR124W", "result": 1.0}, {"measurement": "The level of expressed mRNA in the presence of chemical substance/", "setting": "yeast gene YPR147C", "result": 1.1}, {"measurement": "The level of expressed mRNA in the presence of chemical substance/ (in its absence), gene YPR165W", "setting": "yeast gene YPR165W, ratio of DNA chip fluorescence intensity to that without chemical substance", "result": 2.3}, {"measurement": "The level of expressed mRNA in the presence of chemical substance/in the absence of chemical substance", "setting": "yeast gene YPR167C", "result": 1.7}, {"measurement": "The level of expressed mRNA in the presence of chemical substance/ in its absence, gene YPR184W", "setting": "energy system protein genes, 2 h culture with the chemical, ratio to control without chemical", "result": 1.0}, {"measurement": "The level of expressed mRNA in the presence of chemical substance/ in its absence, gene YPR184W", "setting": "ratio of DNA chip fluorescence intensity to that without chemical substance", "result": 1.0}, {"measurement": "The level of expressed mRNA in the presence of chemical substance/ (ratio to absence)", "setting": "yeast gene YPR201W", "result": 0.8}]}
